# Experimental data published in patent publication US6136825A, “Sulfonamide compounds having 5-HT receptor activity” (Knoll Aktiengesellschaft, priority 1996, dated 2000).
# Where a name gives a salt, the structure may show the parent alone.
# How the values were obtained:
# 5-HT1A = target: T1, 5-HT1A (Rattus norvegicus, UniProt P19327); test: inhibition of tritiated ligand ([3H]8-OH-DPAT) binding to 5-HT1A receptors, rat hippocampal tissue; parameters: species or system male Charles River CD rats; details: for Ki: 25° C., 30 minutes, pH 7.7; for inhibition at 1 µM: at 10^-6 M, read-out: % displacement of specific binding, 5-HT1A
# T1 construct: Hippocampal tissue from the brains of male Charles River CD rats; from tissue; host or cells: rat hippocampus (male Charles River CD rats), crude membrane pellet
# T1 sequence (P19327 1-422): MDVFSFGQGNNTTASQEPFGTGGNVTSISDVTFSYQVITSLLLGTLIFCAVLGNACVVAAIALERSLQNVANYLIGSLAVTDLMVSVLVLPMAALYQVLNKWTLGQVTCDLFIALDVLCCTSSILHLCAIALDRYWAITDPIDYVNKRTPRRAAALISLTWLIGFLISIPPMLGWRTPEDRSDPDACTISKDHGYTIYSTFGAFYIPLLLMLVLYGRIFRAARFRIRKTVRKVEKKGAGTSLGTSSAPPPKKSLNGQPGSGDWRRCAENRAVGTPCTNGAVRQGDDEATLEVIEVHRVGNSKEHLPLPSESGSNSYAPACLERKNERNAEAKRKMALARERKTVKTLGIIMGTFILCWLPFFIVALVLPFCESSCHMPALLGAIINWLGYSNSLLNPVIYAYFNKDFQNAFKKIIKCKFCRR
# Method: Hippocampal tissue from the brains of male Charles River CD rats weighing between 150-250 g were homogenised in ice-cold 50 mM Tris-HCl buffer (pH 7.7) when measured at 25° C., 1:40 w/v) and centrifuged at 30,000 g at 4° C. for 10 minutes. The pellet was rehomogenised in the same buffer, incubated at 37° C. for 10 minutes and centrifuged at 30,000 g at 4° C. for 10 minutes. The final pellet was resuspended in 50 mM Tris-HCl buffer (pH 7.7) containing 4 mM CaCl2, 0.1% L-ascorbic acid and 10 μM pargyline hydrochloride (equivalent to 6.25 mg wet weight of tissue/ml) and used immediately in the binding assay. Aliquots (400 μl; equivalent to 2.5 mg wet weight of tissue/tube) of this suspension were added to tubes containing the ligand (50 μl; 2 nM) and distilled water (50 μl; total binding) or 5-HT (50 μl; 10 μM; non-specific binding) or test compound (50 μl; at a single concentration of 10^-6 M or at 10 concentrations ranging from 10^-11 -10^-3 M). The ligand was [^3 H]8-hydroxy-2-(dipropylamino)tetralin ([^3 H]8-OH-DPAT) and the mixture was incubated at 25° C. for 30 minutes before the incubation was terminated by rapid filtration.
# The filters were washed with ice-cold Tris-HCl buffer and dried. The filters were punched out into vials, scintillation fluid added and radioactivity determined by liquid scintillation counting. The percentage displacement of specific binding of the tritiated ligand was calculated for the single concentration (10^-6 M) of test compound. Displacement curves were then produced for those compounds which displaced ≥50% of specific binding of the tritiated ligand at 10^-6 M using a range of concentrations of the compound. The concentration which gave 50% inhibition of specific binding (IC50) was obtained from the curve. The inhibition coefficient Ki was then calculated using the formula [formula] in which [ligand] is the concentration of the tritiated ligand used and KD Is the equilibrium dissociation constant for the ligand.
# [1] = target: T2, D2-like dopamine receptors (Rattus norvegicus, UniProt P61169); test: inhibition of tritiated (S)-sulpiride binding to D2-like dopamine receptors, rat striatal tissue; parameters: species or system male Charles River CD rats; details: 4° C., 40 minutes, pH 7.7
# T2 construct: Striatal tissue from the brains of male Charles River CD rats; from tissue; host or cells: rat striatum (male Charles River CD rats), crude membrane pellet
# Method: Striatal tissue from the brains of male Charles River CD rats weighing between 140-250 g were homogenised in ice-cold 50 mM Tris-HCl buffer (pH 7.7 when measured at 25° C.) and centrifuged at 40,000 g for 10 minutes. The pellet was resuspended in Tris salts buffer (50 mM Tris-HCl buffer containing 120 mM NaCl, 5 mM KCl, 2 mM CaCl2 and 1 mM MgCl2 with the addition of 6 mM ascorbic acid; pH 7.7 when measured at 25° C.), and again centrifuged at 40,000 g for 10 minutes. The final pellet was stored at -80° C. Before each test the pellet was resuspended in Tris salts buffer (equivalent to 2 mg wet weight of tissue/ml). Aliquots (720 μl; equivalent to 1.44 mg wet weight of tissue/tube) of this suspension were then added to tubes containing the ligand (40 μl; 1 nM) and Tris salts buffer (40 μl; total binding) or spiroperidol (40 μl; 10 nM; non-specific binding) or test compound (40 μl; at a single concentration of 10^-6 M or at 6 concentrations ranging from 10^-11 -10^-4 M). The ligand was tritiated (S)-sulpiride and the mixture was incubated at 4° C. for 40 minutes before the incubation was terminated by rapid filtration.
# The filters were washed with ice-cold Tris-HCl buffer and dried. The filters were punched out in to vials, scintillation fluid added and were left for about 20 hours before being counted by scintillation spectrophotometry. The percentage displacement of specific binding of the tritiated ligand was calculated for the single concentration (10^-6 M) of test compound. Displacement curves were then produced over a range of concentrations for those compounds which displaced ≥50% of specific binding of the tritiated ligand at 10^-6 M. The concentration which gave a 50% inhibition of specific binding (IC50) was obtained from the curve. The inhibition coefficient Ki was then calculated using the formula [formula] in which [ligand] is the concentration of the tritiated ligand used and KD is the equilibrium dissociation constant for the ligand.
# T2 sequence (P61169 whole entry): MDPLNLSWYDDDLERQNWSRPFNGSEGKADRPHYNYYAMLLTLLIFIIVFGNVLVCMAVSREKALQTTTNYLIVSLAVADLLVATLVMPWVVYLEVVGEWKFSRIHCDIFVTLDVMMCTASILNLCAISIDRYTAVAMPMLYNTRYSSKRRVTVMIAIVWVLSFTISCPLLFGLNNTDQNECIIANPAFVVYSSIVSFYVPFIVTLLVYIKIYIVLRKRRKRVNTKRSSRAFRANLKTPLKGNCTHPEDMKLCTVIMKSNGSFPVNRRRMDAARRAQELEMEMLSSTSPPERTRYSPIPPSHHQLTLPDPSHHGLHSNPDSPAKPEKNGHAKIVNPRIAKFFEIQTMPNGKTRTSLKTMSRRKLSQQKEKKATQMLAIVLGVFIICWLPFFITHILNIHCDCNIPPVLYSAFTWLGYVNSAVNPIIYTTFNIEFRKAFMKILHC
compound,measurement,setting,value
"O=S(=O)(NCC1CCN(C[C@H]2COc3ccc(Cl)cc3O2)CC1)c1ccccn1 [Example 1, (S)-(-)-N-{[1-(7-chloro-1,4-benzodioxan-2-ylmethyl)-4-piperidyl]methyl}pyridine-2-sulphonamide monohydrochloride 0.6 hydrate]",Ki,5-HT1A,86.8 nM
same,Ki,[1],29.4 nM
"O=S(=O)(c1ccccn1)N1CCC(CNC[C@H]2COc3ccc(Cl)cc3O2)CC1 [Example 2, (S)-(-)-4-[N-(7-chloro-1,4-benzodioxan-2-ylmethyl)aminomethyl]-1-(2-pyridinesulphonyl)piperidine 0.8 hydrate]",Ki,5-HT1A,11.4 nM
same,Ki,[1],27.9 nM
"O=S(=O)(NCC1CCN(C[C@H]2COc3ccc(Cl)cc3O2)CC1)c1cccnc1 [Example 3, (S)-(-)-N-{[1-(7-chloro-1,4-benzodioxan-2-ylmethyl)-4-piperidyl]methyl}pyridine-3-sulphonamide 0.8 hydrate]",Ki,5-HT1A,31.6 nM
same,Ki,[1],28 nM
"O=[N+]([O-])c1ccc(S(=O)(=O)NCC2CCN(C[C@H]3COc4ccc(Cl)cc4O3)CC2)cc1 [Example 4, (S)-(-)-N-{[1-(7-chloro-1,4-benzodioxan-2-ylmethyl)-4-piperidyl]-methyl}-4-nitrobenzenesulphonamide]",Ki,5-HT1A,15 nM
same,Ki,[1],105 nM
"O=S(=O)(NCC1CCN(C[C@H]2COc3ccc(Cl)cc3O2)CC1)c1ccc(F)cc1 [Example 5, (S)-(-)-N-{[1-(7-chloro-1,4-benzodioxan-2-ylmethyl)-4-piperidyl]methyl}-4-fluorobenzene-sulphonamide]",Ki,5-HT1A,37 nM
same,Ki,[1],69.8 nM
"COc1ccc(S(=O)(=O)NCC2CCN(C[C@H]3COc4ccc(Cl)cc4O3)CC2)cc1OC [Example 6, (S)-(-)-N-{[1-(7-chloro-1,4-benzodioxan-2-ylmethyl)-4-piperidyl]methyl}-3,4-dimethoxybenzenesulphonamide]",Ki,5-HT1A,20 nM
same,Ki,[1],40.2 nM
"O=S(=O)(NCC1CCN(C[C@H]2COc3ccc(Cl)cc3O2)CC1)c1ccc(F)cc1F [Example 7, (S)-(-)-N-{[1-(7-chloro-1,4-benzodioxan-2-ylmethyl)-4-piperidyl]methyl}-2,4-difluorobenzenesulphonamide]",Ki,5-HT1A,35 nM
same,Ki,[1],37.8 nM
"CC(=O)Nc1ccc(S(=O)(=O)NCC2CCN(C[C@H]3COc4ccc(Cl)cc4O3)CC2)cc1 [Example 8, (S)-(-)-4-acetamido-N-{[1-(7-chloro-1,4-benzodioxan-2-ylmethyl)-4-piperidyl]methyl}benzenesulphonamide]",Ki,5-HT1A,45 nM
same,Ki,[1],37.2 nM
"COc1ccc(S(=O)(=O)NCC2CCN(C[C@H]3COc4ccc(Cl)cc4O3)CC2)cc1 [Example 9, (S)-(-)-N-{[1-(7-chloro-1,4-benzodioxan-2-ylmethyl)-4-piperidyl]-methyl}-4-methoxybenzenesulphonamide]",Ki,5-HT1A,42 nM
same,Ki,[1],96.4 nM
"O=S(=O)(NCC1CCN(C[C@H]2COc3ccc(Cl)cc3O2)CC1)c1c(F)cccc1F [Example 10, (S)-(-)-N-{[1-(7-chloro-1,4-benzodioxan-2-ylmethyl)-4-piperidyl]methyl}-2,6-difluorobenzenesulphonamide]",Ki,5-HT1A,7.4 nM
same,Ki,[1],50.1 nM
"O=S(=O)(NCC1CCN(C[C@H]2COc3ccc(Cl)cc3O2)CC1)c1ccc(Cl)cc1 [Example 11, (S)-(-)-N-{[1-(7-chloro-1,4-benzodioxan-2-ylmethyl)-4-piperidyl]methyl}-4-chlorobenzene-sulphonamide]",Ki,5-HT1A,69 nM
same,Ki,[1],157 nM
"O=S(=O)(NCC1CCN(C[C@H]2COc3ccc(C(F)(F)F)cc3O2)CC1)c1ccccn1 [Example 12, (S)-(-)-N-J[1-(7-trifluoromethyl-1,4-benzodioxan-2-ylmethyl)-4-piperidyl]methyl,pyridine-2-sulphonamide]",Ki,5-HT1A,30 nM
same,Ki,[1],28.7 nM
"O=S(=O)(NCC1CCN(C[C@H]2COc3ccc(Br)cc3O2)CC1)c1cccc(Cl)c1Cl [Example 13, (S)-(-)-N-{[1-(7-bromo-1,4-benzodioxan-2-ylmethyl)-4-piperidyl]methyl}-2,3-dichlorobenzensulphonamide]",Ki,5-HT1A,20 nM
same,Ki,[1],102 nM
"O=S(=O)(NCC1CCN(C[C@H]2COc3ccc(C(F)(F)F)cc3O2)CC1)c1cccc(Cl)c1Cl [Example 14, (S)-(-)-2,3-dichloro-N-{[1-(7-trifluoromethyl-1,4-benzodioxan-2-ylmethyl)-4-piperidyl]methyl}benzenesulphonamide]",Ki,5-HT1A,25 nM
same,Ki,[1],111 nM
"O=[N+]([O-])c1ccc(S(=O)(=O)NCC2CCN(C[C@H]3COc4ccc(Cl)cc4O3)CC2)c([N+](=O)[O-])c1 [Example 15, (S)-N-{[1-(7-Chloro-1,4-benzodioxan-2-ylmethyl)-4-piperidyl]methyl}-2,4-dinitrobenzenesulphonamide]",inhibition at 1 µM,5-HT1A,82%
same,Ki,[1],212 nM
"O=S(=O)(NCC1CCN(C[C@H]2COc3ccc(Cl)cc3O2)CC1)c1cc(OCC(F)(F)F)ccc1OCC(F)(F)F [Example 16, (S)-N-{[1-(7-Chloro-1,4-benzodioxan-2-ylmethyl)-4-piperidyl]methyl}-2,5-bis(2,2,2-trifluoroethoxy)benzenesulphonamide]",inhibition at 1 µM,5-HT1A,84%
same,Ki,[1],258 nM
"O=S(=O)(NCC1CCN(C[C@H]2COc3ccc(Cl)cc3O2)CC1)c1ccc(C(F)(F)F)cc1Cl [Example 17, (S)-2-Chloro-N-{[1-(7-chloro-1,4-benzodioxan-2-ylmethyl)-4-piperidyl]methyl}-4-trifluoromethylbenzenesulphonamide]",inhibition at 1 µM,5-HT1A,88%
same,Ki,[1],519 nM
"O=S(=O)(NCC1CCN(C[C@H]2COc3ccc(Cl)cc3O2)CC1)c1ccc(I)cc1 [Example 18, (S)-N-{[1-(7-Chloro-1,4-benzodioxan-2-ylmethyl)-4-piperidyl]methyl}-4-iodo-benzenesulphonamide]",inhibition at 1 µM,5-HT1A,90%
same,Ki,[1],227 nM
"COc1cc(C)c(S(=O)(=O)NCC2CCN(C[C@H]3COc4ccc(Cl)cc4O3)CC2)c(C)c1C [Example 19, (S)-N-{[1-(7-Chloro-1,4-benzodioxan-2-ylmethyl)-4-piperidyl]methyl}-4-methoxy-2,3,6-trimethylbenzenesulphonamide]",inhibition at 1 µM,5-HT1A,55%
same,Ki,[1],306 nM
"O=S(=O)(NCC1CCN(C[C@H]2COc3ccc(Cl)cc3O2)CC1)c1cc2nnoc2c2ccccc12 [Example 20, (S)-N-{[1-(7-Chloro-1,4-benzodioxan-2-ylmethyl)-4-piperidyl]methyl}naphth [2,1-d][1,2,3]oxadiazole-5-sulphonamide]",inhibition at 1 µM,5-HT1A,75%
same,Ki,[1],235 nM
